Structures can show the parent of a compound that is named as a salt.
target: Alpha-Synuclein Protofibril binding to heparin (HS-GAG) (Homo sapiens, UniProt P37840); assay: Inhibition of alpha-synuclein protofibril binding to immobilized heparin-BSA (ELISA); parameters: species or system porcine; settings: 30 μM compound; alpha-synuclein protofibrils, heparin-BSA; read-out: Alpha-Synuclein/Heparin Activity (% inhibition class)
Procedure: Porcine intestinal mucosa heparin conjugated to Bovine Serum Albumin (Heparin-BSA) was prepared as described (Najjam, S. et al. 1997, Cytokine 12, 1013-1022). Heparin is a sulfated HS-GAG and is commonly used as a HS-GAG in biochemical and binding assays (Lindahl, U. and Kjellen, L. (2013) ibid). Heparin-BSA at 0.01 mg/ml in Phosphate Buffered Saline (PBS; pH 7.4) was added to a 96 well polystyrene ELISA plate (NUNC Cat. No. 449824; 100 μl per well) and incubated Over Night (ON) at 4 degrees Celsius. For negative controls, ELISA plates were coated with BSA instead of Heparin-BSA, using the same procedure. Following the incubation, the plate was washed consecutively, by immersion, with de-ionized water and PBS (pH 7.4). The ELISA plate was then blocked with nonfat milk (2%, 200 μl per well) for 2 hours at Room Temperature (RT) with gentle shaking. Following blocking, the plate was washed with de-ionized water then PBS (pH 7.4). GBAPs were dissolved and diluted in PBS (pH 6.5, supplemented with 0.1% BSA) at desired concentrations, added to the ELISA plates containing immobilized Heparin-BSA (100 μl per well) and incubated for 2 hours at RT with gentle shaking. Following incubation, the plate was washed with de-ionized water and three times with PBS (pH 6.5) plus Tween. Bound GBAP was detected by a monoclonal antibody specific for that GBAP, followed by incubation with secondary antibody conjugated to horseradish peroxidase (HRP). Antibody was diluted in PBS (pH 6.5 supplemented with 1% BSA). Following each incubation with antibody, the plate was washed with de-ionized water and three times with PBS (pH 6.5) wash buffer containing 0.1% Tween. The peroxidase substrate chromogen, TMB (Dako Cat. No. S1599) was added (100 μl per well) to the ELISA plate and incubated at room temperature. After 5 minutes ELISA Stop Solution (hydrochloric acid 1N, sulfuric acid 3N) was added (100 μl per well) to stop the peroxidase catalyzed colorimetric reaction. The Optical Density of the samples was measured at 450 nm using an ELISA plate reader (BioTek Synergy H1). Following color development, the % inhibition compared to control (BSA-coated plates) was determined. IC-50s were calculated using GraphPad Prism software.
The assay was performed as described in Example 43, with the following modifications. Following to coating the plates with Heparin-BSA, plates were washed as described. The compounds were dissolved in DMSO at 10 mM final concentration and further diluted prior to assay. DMSO concentration in the screening well was up to […]. Individual compounds were co-incubated with alpha-synuclein on plates containing immobilized heparin. Alpha-synuclein purchased from rPeptide (Cat. No. S1001) was used to prepare protofibrils as described in Ihse et al., 2017. Alpha-synuclein was dissolved in PBS (pH7.4) to a concentration of 140 μM (˜2 mg/ml), and incubated for 7 days at 37° C. with rotary agitation (400 rpm). Resulting fibrils were sonicated for 10 minutes in ultrasonic water bath, quickly frozen and kept in aliquots at −80 degrees Celsius. Protofibrillar alpha-synuclein diluted in PBS (pH 6.5, supplemented with BSA, 0.1%) was added to the ELISA plate (100 μl per well) and incubated for 2 hours at RT with gentle shaking. Following the incubation, the plate was washed with de-ionized water and three times with PBS (pH 6.5) plus Tween. Bound Alpha-synuclein was detected by Anti-Alpha-synuclein Monoclonal Antibody 211 (Santa Cruz Cat. No. sc-12767), followed by secondary anti-IgG antibody conjugated to HRP (R&D System, Cat. No. HAF007). Following to color development with TMB, as described in Example 43, the Optical Density of the samples was measured at 450 nm using an ELISA plate reader. Following color development, the % inhibition compared to control (no compound, DMSO control) for every compound was determined.
An example of inhibition curve is shown in FIG. 1 for Inhibitor Compounds 22 and 24. […]

`C[N+](C)(C)Cc1ccc(/C=N\Nc2ccnc3ccc(Cl)cc23)cc1` [Compound 4, (Z)-1-(4-((2-(6-chloroquinolin-4-yl)hydrazineylidene)methyl)phenyl)—N,N,N-trimethylmethanaminium iodide] and `Fc1ccc2c(N/N=C/c3ccc(CN4CCOCC4)cc3)ccnc2c1` [Compound 6, (E)-4-(4-((2-(7-fluoroquinolin-4-yl)hydrazono)methyl)benzyl)morpholine] cannot be ordered by inhibition at 30 µM: > 30% for the first, > 30% for the second.

`C[n+]1ccc(/C=N\Nc2ccnc3ccccc23)cc1` [Compound 9, (Z)-1-methyl-4-((2-(quinolin-4-yl)hydrazono)methyl)pyridin-1-ium iodide] and `O=S1(=O)CCN(Cc2ccc(/C=N/Nc3ccnc4cc(F)ccc34)cc2)CC1` [Compound 10, (E)-4-(4-((2-(7-fluoroquinolin-4-yl)hydrazono)methyl)benzyl)thiomorpholine 1,1-dioxide] cannot be ordered by inhibition at 30 µM: < 30% for the first, < 30% for the second.

same assay, conditions: Alpha-Synuclein/Heparin Activity (IC-50), alpha-synuclein protofibrils, heparin-BSA

`Clc1ccc2c(N/N=C/c3ccc(-n4cccn4)cc3)ccnc2c1` [Compound 3, (E)-4-((E)-(4-(1H-pyrazol-1-yl)benzylidene)hydrazono)-7-chloro-1,4-dihydroquinoline] and `Clc1ccc2c(N/N=C/c3ccc(-n4ccnc4)nc3)ccnc2c1` [Compound 14, (E)-4-(2-((6-(1H-imidazol-1-yl)pyridin-3-yl)methylene)hydrazineyl)-7-chloroquinoline hydrochloride] are within 1.5-fold of each other in IC50: 1.7 µM for the first, 2.02 µM for the second.

First: CN1CCN(Cc2ccc(/C=N/Nc3ccnc4cc(Cl)ccc34)cc2)CC1 [Compound 7, (E)-7-chloro-4-(2-(4-((4-methylpiperazin-1-yl)methyl)benzylidene)hydrazinyl)quinolone]
Second: CC(=NNc1ccnc2cc(Cl)ccc12)c1ccc(-n2cnc(C)c2C)nc1 [Compound 22, 7-chloro-4-(2-(1-(6-(4,5-dimethyl-1H-imidazol-1-yl)pyridin-3-yl)ethylidene)hydrazineyl)quinoline]
The IC50 of the first is 2-fold lower: 1.41 µM for the first, 2.87 µM for the second.

First: COc1cc2nccc(N/N=C/c3ccc(-n4ccnc4)c(OC)c3)c2cc1OC [Compound 13, (E)-4-(2-(4-(1H-imidazol-1-yl)-3-methoxybenzylidene)hydrazineyl)-6,7-dimethoxyquinoline phosphate]
Second: Cc1ncn(-c2ccc(/C=N\Nc3ncnc4cc(Cl)ccc34)cn2)c1C [Compound 15, 7-chloro-4-(2-((6-(4,5-dimethyl-1H-imidazol-1-yl)pyridin-3-yl)methylene)hydrazineyl)quinazoline hydrochloride]
The IC50 of the first is 6.7-fold higher: 35.2 µM for the first, 5.22 µM for the second.

`C/C(=N\Nc1ncnc2cc(Cl)ccc12)c1ccc(-n2cnc(C)c2C)nc1` [Compound 16, 7-chloro-4-(2-(1-(6-(4,5-dimethyl-1H-imidazol-1-yl)pyridin-3-yl)ethylidene)hydrazineyl)quinazoline phosphate] and `Cc1ncn(-c2ccc(Nc3ncnc4cc(Cl)ccc34)cn2)c1C` [Compound 25, 7-chloro-N-(6-(4,5-dimethyl-1H-imidazol-1-yl)pyridin-3-yl)quinazolin-4-amine] are within 1.5-fold of each other in IC50: 3.21 µM for the first, 3.83 µM for the second.

With `C/C(=N\Nc1ncnc2cc(Cl)ccc12)c1ccc(-n2cc[n+](C)c2)nc1` [Compound 17, (E)-1-(5-(1-(2-(7-chloroquinazolin-4-yl)hydrazineylidene)ethyl)pyridin-2-yl)-3-methyl-1H-imidazol-3-ium iodide phosphoric acid salt] the IC50 was 13.5 µM.

same assay, conditions: alpha-synuclein protofibrils, heparin-BSA; read-out: Alpha-Synuclein/Heparin Activity (IC-50)

First: Cc1cc(-n2ccnc2)ccc1/C=N/Nc1ccnc2cc(Cl)ccc12 [Compound 1, (E)-4-((E)-(4-(1H-imidazol-1-yl)-2-methylbenzylidene)hydrazono)-7-chloro-1,4-dihydroquinoline]
Second: C/C(=N\Nc1ncnc2cc(Cl)ccc12)c1ccc(-n2cc(C)nc2C)nc1 [Compound 18, (E)-7-chloro-4-(2-(1-(6-(2,4-dimethyl-1H-imidazol-1-yl)pyridin-3-yl)ethylidene)hydrazineyl)quinazoline phosphoric acid salt]
The IC50 of the first is 1.9-fold higher: 3.19 µM for the first, 1.71 µM for the second.

`C/C(=N\Nc1ncnc2cc(F)ccc12)c1ccc(-n2cnc(C)c2C)nc1` [Compound 21, (E)-4-(2-(1-(6-(4,5-dimethyl-1H-imidazol-1-yl)pyridin-3-yl)ethylidene)hydrazineyl)-7-fluoroquinazoline] and `C/C(=N\Nc1ncnc2cc(Cl)ccc12)c1ccc(-n2cc(C)nc2C)nc1` [Compound 27, (E)-7-chloro-4-(2-(1-(6-(2,4-dimethyl-1H-imidazol-1-yl)pyridin-3-yl)ethylidene)hydrazineyl)quinazoline hydrochloride] are within 1.5-fold of each other in IC50: 2.06 µM for the first, 1.95 µM for the second.

In the case of `C/C(=N\Nc1nncc2cc(Cl)ccc12)c1ccc(-n2cc(C)nc2C)nc1` [Compound 24, (E)-6-chloro-1-(2-(1-(6-(2,4-dimethyl-1H-imidazol-1-yl)pyridin-3-yl)ethylidene)hydrazineyl)phthalazine], the IC50 is reported as 6.44 µM.

same assay, conditions: read-out: Alpha-Synuclein/Heparin Activity (% inhibition class)

`Cc1ncn(-c2ccc(/C=N/Nc3ccnc4cc(Cl)ccc34)cc2)c1C` [Compound 2, (E)-7-chloro-4-((E)-(4-(4,5-dimethyl-1H-imidazol-1-yl)benzylidene)hydrazono)-1,4-dihydroquinoline] and `Fc1ccc2c(N/N=C/c3ccc(-n4ccnc4)cc3)ccnc2c1` [Compound 5, (E)-4-(2-(4-(1H-imidazol-1-yl)benzylidene)hydrazinyl)-7-fluoroquinoline] cannot be ordered by inhibition at 30 µM: < 30% for the first, < 30% for the second.

`C(=N\Nc1ccc2c3c(cccc13)CC2)/c1ccc(-n2ccnc2)cc1` [Compound 8, (E)-1-(4-((2-(1,2-dihydroacenaphthylen-5-yl)hydrazineylidene)methyl)phenyl)-1H-imidazole] and `COc1ccc2c(NN=Cc3ccc(-n4ccnc4)c(C)c3)ccnc2c1` [Compound 12, 4-(2-(4-(1H-imidazol-1-yl)-3-methylbenzylidene)hydrazineyl)-7-methoxyquinoline] cannot be ordered by inhibition at 30 µM: < 30% for the first, < 30% for the second.

`COc1cc2nccc(NN=Cc3ccc(-n4ccnc4)c(C)c3)c2cc1OC` [Compound 11, 4-(2-(4-(1H-imidazol-1-yl)-3-methylbenzylidene)hydrazineyl)-6,7-dimethoxyquinoline hydrochloride] and `CC(=NNc1ccnc2cc(Cl)ccc12)c1ccc(-n2cc[n+](C)c2)nc1` [Compound 23, 1-(5-(1-(2-(7-chloroquinolin-4-yl)hydrazineylidene)ethyl)pyridin-2-yl)-3-methyl-1H-imidazol-3-ium iodide] cannot be ordered by inhibition at 30 µM: < 30% for the first, < 30% for the second.

Compared with `C/C(=N\Nc1ncnc2ccccc12)c1ccc(-n2cc(C)nc2C)nc1` [Compound 19, (E)-4-(2-(1-(6-(2,4-dimethyl-1H-imidazol-1-yl)pyridin-3-yl)ethylidene)hydrazineyl)quinazoline], `C/C(=N\Nc1ncnc2cc(F)ccc12)c1ccc(-n2cc[n+](C)c2)nc1` [Compound 26, (E)-1-(5-(1-(2-(7-fluoroquinazolin-4-yl)hydrazineylidene)ethyl)pyridin-2-yl)-3-methyl-1H-imidazol-3-ium phosphoric acid salt] is higher in inhibition at 30 µM: < 30% for the first, > 30% for the second.

With `CN1CCN(c2cc(Nc3ccnc4cc(Cl)ccc34)ccn2)CC1` [Compound 20, 7-chloro-N-(2-(4-methylpiperazin-1-yl)pyridin-4-yl)quinolin-4-amine] the inhibition at 30 µM was < 30%.

From patent US20240398783A1, “Compounds and Pharmaceutical Compositions Comprising Inhibitors of Amyloid Peptide Interactions with Glycosaminoglycans, Methods of Treatment and Use Thereof” (Gismo Therapeutics, Inc., priority 2021, published 2024)
